Earlier results as cited in patent publication US20040259937A1, “Hydroxycitric acid complex metal salts, composition, and methods” (INDFRAG LIMITED, priority 2003, published 2004).

Conditions: converted to the lactone form during processing

stability of pure free acid: not stable
SMILES: O=C(O)CC(O)(C(=O)O)C(O)C(=O)O (single isomer, unassigned; (-)) [(−)hydroxycitric acid]
